Structures can show the parent of a compound that is named as a salt.
Tested on: NMDA receptors (NMDA-induced currents)
Assay: Patch clamp (whole cell) registration of NMDA-induced currents in cultured rat hippocampus neurons
Type: cell-based
Details: for Change of the blocking effect of MK-801 on NMDA-induced currents after preliminary application of the substance: result in words
Description: Experiments were carried out by the patch clamp method on freshly isolated neurons of a rat brain cortex or on cultured rat hippocampus neurons. Neurons for cultivation were obtained from the hippocampus of neonatal rats (1-2 days) by the method of trypsinization followed by pipetting. Cells suspended in culture medium were placed in 3 mL quantities into the wells of a 6-well planchette (Nunc) or into Petri dishes, in which glasses coated with poly-L-lysine had first been placed. The cell concentration as a rule was […]. The culture medium consisted of Eagle's minimum medium and a DME/F12 medium (1:1) supplemented with 10% calf serum, glutamine (2 mM), gentamycin (50 μg/mL), glucose (15 mM) and 20 mM KCl, with the pH brought to 7-7.4 using NaHCO3. Planchettes containing cultures were placed in a CO2— incubator at 37° C. and 100% humidity. Cytosine arabinoside 10-20 μL was added on the second to third day of cultivation. After 6-7 days of cultivation 1 mg/mL glucose was added to the medium, or the medium was exchanged, depending on the following experiment. The cultured hippocampus neurons were placed in a 0.4 mL working chamber. The working solution had the following composition (mM): NaCl 150.0, KCl 5.0, CaCl2 2.6, MgSO4×7H2O 2.0, HEPES 10.0, glucose 15.0, pH 7.36.
Transmembrane currents produced by application of NMDA were registered by the patch clamp electrophysiological method in the whole cell configuration. Application of substances was done by the method of rapid superfusion. Currents were registered with the aid of borosilicate microelectrodes (resistance […]) filled with the following composition (mM): KCl 100.0, EGTA 11.0, CaCl2 1.0, MgCl2 1.0, HEPES 10.0, ATP 5.0 pH 7.2. An EPC-9 instrument (HEKA, Germany) was used for registration. Currents were recorded on the hard disk of a Pentium-IV PC using the pulse program, which is also purchased from HEKA. The results were analyzed with the aid of the Pulsefit program (HEKA).

Row | Structure (SMILES) | Change of the blocking effect of MK-801 on NMDA-induced currents after preliminary application of the substance | IC50 (cultured rat hippocampus neurons, range and average printed, dihydrochloride, read-out: IC50 of blocking effect on currents caused by application of NMDA) [µM] | Blockade of NMDA-induced currents (%) (dimebon alone at 10 μM) | Blockade of NMDA-induced currents (%) by MK-801 after preliminary perfusion with dimebon (preliminary perfusion with dimebon 10 μM, then MK-801) [%]
1 | N[C@H](CCCP(=O)(O)O)C(=O)O [D-AP5, D-2-amino-5-phosphonovaleric acid] | did not decrease the blocking effect of MK-801 | – | – | –
2 | Cc1ccc2c(c1)c1c(n2CCc2ccc(C)nc2)CCN(C)C1 [Dimebon, 2,8-dimethyl-5-[2-(6-methylpyridyl-3)ethyl]-2,3,4,5-tetrahydro-1H-pyrido[4,3-b]indole dihydrochloride] | capable of reducing the blocking effect of MK-801 | 7.7 ± 1.9 | By 50-70% at 10 μM | 40±18

— patent US20070225316A1, “Methods and compositions for treating schizophrenia” (priority 2006, published 2007)
